Paper PMC4207660, “Identification and Characterization of Hundreds of Potent and Selective Inhibitors of Trypanosoma brucei Growth from a Kinase-Targeted Library Screening Campaign” (PLoS Neglected Tropical Diseases, 2014)

Tests used:
PI3KA = PI3KA (Homo sapiens, UniProt P42336); test: Human kinase selectivity screening: PI3KA; format: biochemical; conditions: read-out: PI3KA pIC50 values (converted)
Description: (§1) These kinases were chosen for general selectivity screening owing to their broad representation of the human kinome.

SYK = SYK (Homo sapiens, UniProt P43405); test: Human kinase selectivity screening: SYK; format: biochemical; conditions: read-out: SYK pIC50 values (converted)
Description: as §1

IKK2 = molecular target: T1, IKK2 (Homo sapiens, UniProt O14920); test: Human kinase selectivity screening: IKK2; format: biochemical; conditions: read-out: IKK2 pIC50 values (converted)
T1 sequence (O14920 1-756): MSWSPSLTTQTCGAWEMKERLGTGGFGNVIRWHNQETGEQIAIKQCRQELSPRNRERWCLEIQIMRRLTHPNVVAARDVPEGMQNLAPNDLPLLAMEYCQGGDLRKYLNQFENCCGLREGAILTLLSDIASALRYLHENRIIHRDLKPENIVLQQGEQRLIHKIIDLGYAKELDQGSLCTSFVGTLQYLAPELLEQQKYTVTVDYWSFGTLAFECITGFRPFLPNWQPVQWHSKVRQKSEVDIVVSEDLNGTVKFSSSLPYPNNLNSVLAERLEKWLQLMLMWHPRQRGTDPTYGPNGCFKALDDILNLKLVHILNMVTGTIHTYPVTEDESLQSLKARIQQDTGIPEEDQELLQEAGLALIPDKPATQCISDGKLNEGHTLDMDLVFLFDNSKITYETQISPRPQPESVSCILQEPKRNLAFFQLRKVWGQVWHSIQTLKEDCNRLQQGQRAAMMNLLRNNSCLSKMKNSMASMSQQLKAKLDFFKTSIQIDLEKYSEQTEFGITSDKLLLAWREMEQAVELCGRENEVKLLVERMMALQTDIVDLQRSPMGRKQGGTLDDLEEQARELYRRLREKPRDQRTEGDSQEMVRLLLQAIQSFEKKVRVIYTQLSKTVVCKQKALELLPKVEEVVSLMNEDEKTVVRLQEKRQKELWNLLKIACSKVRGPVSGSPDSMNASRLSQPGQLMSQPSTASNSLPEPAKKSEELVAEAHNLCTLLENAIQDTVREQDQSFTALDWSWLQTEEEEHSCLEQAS
Description: as §1

P38A = molecular target: T2, P38A (Homo sapiens, UniProt Q16539); test: biochemical
T2 construct: variant as stated: P38A
T2 sequence (Q16539 2-360): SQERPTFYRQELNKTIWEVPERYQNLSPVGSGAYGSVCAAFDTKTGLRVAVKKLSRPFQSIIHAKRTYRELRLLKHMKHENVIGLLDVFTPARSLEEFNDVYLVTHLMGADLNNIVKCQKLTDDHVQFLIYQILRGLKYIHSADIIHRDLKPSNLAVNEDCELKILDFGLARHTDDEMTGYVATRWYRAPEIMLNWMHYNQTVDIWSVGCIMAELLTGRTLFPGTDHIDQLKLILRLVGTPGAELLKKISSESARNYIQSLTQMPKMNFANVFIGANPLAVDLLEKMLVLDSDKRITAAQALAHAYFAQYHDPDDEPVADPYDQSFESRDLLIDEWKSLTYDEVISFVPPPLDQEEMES
Description: as §1

LCK = LCK (Homo sapiens, UniProt P06239); test: Human kinase selectivity screening: LCK; format: biochemical; conditions: read-out: LCK pIC50 values (converted)
Sequence of LCK (P06239 whole entry): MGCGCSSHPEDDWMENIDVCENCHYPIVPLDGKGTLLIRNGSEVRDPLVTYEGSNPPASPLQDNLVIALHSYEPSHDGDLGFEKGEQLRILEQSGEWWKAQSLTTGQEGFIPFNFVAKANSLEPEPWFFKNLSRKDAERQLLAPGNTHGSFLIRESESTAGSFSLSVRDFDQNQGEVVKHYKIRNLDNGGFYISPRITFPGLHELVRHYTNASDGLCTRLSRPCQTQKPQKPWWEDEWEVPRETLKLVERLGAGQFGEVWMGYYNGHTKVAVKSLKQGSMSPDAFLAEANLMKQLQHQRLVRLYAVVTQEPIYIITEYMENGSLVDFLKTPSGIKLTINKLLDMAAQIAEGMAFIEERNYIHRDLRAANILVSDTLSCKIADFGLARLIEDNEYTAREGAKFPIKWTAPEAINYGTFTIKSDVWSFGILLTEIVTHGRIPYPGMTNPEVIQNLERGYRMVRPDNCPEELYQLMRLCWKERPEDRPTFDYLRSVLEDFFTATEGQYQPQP
Description: as §1

JAK2 = JAK2 (Homo sapiens, UniProt O60674); test: Human kinase selectivity screening: JAK2; format: biochemical; conditions: read-out: JAK2 pIC50 values (converted)
Sequence of JAK2 (O60674 whole entry): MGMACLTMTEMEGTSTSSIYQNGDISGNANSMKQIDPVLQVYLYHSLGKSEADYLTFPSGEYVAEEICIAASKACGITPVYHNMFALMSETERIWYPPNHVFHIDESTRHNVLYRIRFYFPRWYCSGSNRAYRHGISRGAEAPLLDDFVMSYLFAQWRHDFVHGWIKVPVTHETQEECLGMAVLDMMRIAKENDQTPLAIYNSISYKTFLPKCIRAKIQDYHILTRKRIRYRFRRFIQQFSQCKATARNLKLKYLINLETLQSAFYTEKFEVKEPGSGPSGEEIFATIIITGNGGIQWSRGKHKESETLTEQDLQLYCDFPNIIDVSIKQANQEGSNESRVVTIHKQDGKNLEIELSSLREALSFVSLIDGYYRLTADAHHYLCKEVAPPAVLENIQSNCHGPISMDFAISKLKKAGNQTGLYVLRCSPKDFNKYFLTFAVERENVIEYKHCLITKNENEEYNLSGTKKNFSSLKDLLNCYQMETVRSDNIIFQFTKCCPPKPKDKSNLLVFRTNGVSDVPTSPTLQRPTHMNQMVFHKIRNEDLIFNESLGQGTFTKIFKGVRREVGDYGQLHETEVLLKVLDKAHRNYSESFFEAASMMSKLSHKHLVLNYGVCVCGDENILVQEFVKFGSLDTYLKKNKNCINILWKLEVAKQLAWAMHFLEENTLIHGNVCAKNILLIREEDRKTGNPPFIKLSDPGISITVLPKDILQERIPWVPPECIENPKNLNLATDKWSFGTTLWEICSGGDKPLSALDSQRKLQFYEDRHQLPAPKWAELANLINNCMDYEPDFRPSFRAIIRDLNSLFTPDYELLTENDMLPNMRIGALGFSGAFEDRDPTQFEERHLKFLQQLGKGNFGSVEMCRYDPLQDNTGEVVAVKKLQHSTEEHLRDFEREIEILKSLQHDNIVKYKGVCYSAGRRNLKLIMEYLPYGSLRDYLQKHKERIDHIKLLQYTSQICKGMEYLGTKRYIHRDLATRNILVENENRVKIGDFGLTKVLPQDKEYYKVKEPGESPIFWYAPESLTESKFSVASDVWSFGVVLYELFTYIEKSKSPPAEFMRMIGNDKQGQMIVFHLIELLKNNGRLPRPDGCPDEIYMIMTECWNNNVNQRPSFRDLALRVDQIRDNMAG
Description: as §1

IKK1 = molecular target: T3, IKK1 (Homo sapiens, UniProt O15111); test: Human kinase selectivity screening: IKK1; format: biochemical; conditions: read-out: IKK1 pIC50 values (converted)
T3 sequence (O15111 1-745): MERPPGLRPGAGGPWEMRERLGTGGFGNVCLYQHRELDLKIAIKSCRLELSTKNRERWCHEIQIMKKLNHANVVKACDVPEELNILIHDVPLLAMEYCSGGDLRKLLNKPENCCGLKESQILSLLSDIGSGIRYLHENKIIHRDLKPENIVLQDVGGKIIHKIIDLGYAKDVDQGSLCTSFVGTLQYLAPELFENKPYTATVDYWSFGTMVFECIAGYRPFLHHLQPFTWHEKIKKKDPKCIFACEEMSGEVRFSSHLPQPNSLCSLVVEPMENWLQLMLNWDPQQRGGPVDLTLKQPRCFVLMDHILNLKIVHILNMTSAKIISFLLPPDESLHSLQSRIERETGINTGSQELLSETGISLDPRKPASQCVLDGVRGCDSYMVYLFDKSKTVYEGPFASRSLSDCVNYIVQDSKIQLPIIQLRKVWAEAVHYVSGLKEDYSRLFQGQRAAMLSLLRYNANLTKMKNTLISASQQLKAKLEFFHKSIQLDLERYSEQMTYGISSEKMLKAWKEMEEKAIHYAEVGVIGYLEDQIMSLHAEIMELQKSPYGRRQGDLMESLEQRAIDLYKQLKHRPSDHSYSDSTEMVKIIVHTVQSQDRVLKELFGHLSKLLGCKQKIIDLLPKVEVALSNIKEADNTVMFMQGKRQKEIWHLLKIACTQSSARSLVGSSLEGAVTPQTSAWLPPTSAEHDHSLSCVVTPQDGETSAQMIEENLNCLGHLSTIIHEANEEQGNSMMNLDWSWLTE
Description: as §1

ITK = molecular target: T4, ITK (Homo sapiens, UniProt Q08881); test: Human kinase selectivity screening: ITK; format: biochemical; conditions: read-out: ITK pIC50 values (converted)
T4 sequence (Q08881 1-620): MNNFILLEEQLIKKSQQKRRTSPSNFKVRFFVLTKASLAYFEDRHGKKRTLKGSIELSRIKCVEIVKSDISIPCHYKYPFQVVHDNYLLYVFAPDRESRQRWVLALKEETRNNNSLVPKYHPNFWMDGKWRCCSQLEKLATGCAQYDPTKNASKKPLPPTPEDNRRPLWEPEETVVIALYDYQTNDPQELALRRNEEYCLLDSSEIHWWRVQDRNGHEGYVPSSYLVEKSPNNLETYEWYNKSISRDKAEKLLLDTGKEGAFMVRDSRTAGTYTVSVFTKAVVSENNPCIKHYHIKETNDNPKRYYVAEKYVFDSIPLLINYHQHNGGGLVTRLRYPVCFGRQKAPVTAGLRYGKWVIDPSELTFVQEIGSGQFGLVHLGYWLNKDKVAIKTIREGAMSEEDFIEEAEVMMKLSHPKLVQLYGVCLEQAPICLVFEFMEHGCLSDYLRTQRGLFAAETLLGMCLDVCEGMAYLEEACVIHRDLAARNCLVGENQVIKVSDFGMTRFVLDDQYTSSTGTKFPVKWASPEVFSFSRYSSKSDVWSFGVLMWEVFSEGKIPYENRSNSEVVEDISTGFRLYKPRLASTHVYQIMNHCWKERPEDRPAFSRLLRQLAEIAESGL
Description: as §1

AURB = AURB (Homo sapiens, UniProt Q96GD4); test: Human kinase selectivity screening: AURB; format: biochemical; conditions: read-out: AURB pIC50 values (converted)
Sequence of AURB (Q96GD4 whole entry): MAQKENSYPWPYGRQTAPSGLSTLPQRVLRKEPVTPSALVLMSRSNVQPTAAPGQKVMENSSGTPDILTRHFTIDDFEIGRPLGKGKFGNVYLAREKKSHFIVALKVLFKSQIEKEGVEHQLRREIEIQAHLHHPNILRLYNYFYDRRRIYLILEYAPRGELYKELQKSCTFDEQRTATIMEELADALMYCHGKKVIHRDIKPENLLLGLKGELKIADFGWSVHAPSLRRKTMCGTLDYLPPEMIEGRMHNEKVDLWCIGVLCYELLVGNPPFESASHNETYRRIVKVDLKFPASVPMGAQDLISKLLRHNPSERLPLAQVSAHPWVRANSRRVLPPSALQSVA
Description: as §1

Sequence of PI3KA (P42336 whole entry): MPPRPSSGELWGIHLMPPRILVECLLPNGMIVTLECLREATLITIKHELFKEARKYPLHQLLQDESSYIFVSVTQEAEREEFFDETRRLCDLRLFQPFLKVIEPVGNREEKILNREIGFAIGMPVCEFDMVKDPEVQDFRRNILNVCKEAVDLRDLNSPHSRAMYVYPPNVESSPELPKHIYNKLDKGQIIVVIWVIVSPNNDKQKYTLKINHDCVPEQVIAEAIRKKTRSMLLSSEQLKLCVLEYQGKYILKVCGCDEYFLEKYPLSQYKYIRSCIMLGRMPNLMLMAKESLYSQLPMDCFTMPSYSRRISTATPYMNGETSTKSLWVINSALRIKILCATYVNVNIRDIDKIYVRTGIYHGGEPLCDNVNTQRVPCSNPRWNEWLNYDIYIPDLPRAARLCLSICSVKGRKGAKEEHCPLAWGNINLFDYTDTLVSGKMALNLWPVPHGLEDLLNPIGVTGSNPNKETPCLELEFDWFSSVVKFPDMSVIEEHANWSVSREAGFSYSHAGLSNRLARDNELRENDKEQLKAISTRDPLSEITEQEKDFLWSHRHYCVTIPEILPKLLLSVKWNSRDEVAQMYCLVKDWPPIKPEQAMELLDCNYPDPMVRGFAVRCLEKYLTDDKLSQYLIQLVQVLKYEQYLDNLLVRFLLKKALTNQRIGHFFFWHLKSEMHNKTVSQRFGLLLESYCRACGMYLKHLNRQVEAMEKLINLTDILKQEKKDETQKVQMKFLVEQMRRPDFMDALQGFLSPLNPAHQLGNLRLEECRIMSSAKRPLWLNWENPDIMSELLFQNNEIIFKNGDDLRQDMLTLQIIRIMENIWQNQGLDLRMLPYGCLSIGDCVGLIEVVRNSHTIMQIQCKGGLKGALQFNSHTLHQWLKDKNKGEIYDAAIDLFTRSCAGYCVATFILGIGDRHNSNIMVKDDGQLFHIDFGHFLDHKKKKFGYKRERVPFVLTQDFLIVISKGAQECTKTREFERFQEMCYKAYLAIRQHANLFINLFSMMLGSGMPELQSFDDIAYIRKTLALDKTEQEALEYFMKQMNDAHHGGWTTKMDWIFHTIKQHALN
Sequence of PI3KA (P27986 whole entry partner): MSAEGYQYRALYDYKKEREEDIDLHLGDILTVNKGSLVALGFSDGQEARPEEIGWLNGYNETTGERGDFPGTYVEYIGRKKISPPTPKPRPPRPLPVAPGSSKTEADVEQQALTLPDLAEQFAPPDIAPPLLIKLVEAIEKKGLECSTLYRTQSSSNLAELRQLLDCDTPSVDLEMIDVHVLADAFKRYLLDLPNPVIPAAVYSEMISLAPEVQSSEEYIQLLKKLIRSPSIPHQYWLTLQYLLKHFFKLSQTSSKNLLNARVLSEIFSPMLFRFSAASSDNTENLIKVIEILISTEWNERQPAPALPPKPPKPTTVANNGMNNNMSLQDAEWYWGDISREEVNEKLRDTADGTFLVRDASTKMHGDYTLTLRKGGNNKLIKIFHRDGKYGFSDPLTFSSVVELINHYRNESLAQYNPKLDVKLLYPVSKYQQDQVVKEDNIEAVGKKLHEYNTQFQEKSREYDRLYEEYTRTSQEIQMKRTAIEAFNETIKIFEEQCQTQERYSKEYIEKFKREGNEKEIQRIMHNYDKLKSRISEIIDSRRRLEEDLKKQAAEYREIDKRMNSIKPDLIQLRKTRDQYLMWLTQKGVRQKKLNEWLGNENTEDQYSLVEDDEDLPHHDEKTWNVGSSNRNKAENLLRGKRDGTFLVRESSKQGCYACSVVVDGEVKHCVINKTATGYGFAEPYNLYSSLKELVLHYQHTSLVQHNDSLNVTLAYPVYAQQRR

Cc1cc(Nc2cc(C3CC3)[nH]n2)nc(N2CCCCC2)n1 [NEU-0001127]
IC50 (PI3KA): > 25100 nM | IC50 (SYK): 1000 nM | IC50 (IKK2): > 25100 nM | PFI (ChromlogD assay): 6.13 | IC50 (P38A): > 25100 nM | IC50 (LCK): 1000 nM | IC50 (JAK2): 398 nM | IC50 (IKK1): 20000 nM | IC50 (ITK): 1000 nM | IC50 (AURB): 158 nM

O=S1(=O)Cc2ccc(Nc3nccc(-c4ccc(F)cc4)n3)cc2C1 [NEU-0001142]
IC50 (PI3KA): > 25100 nM | IC50 (SYK): 501 nM | IC50 (IKK2): 501 nM | PFI (ChromlogD assay): 7.11 | IC50 (P38A): 25100 nM | IC50 (LCK): 2510 nM | IC50 (JAK2): 50.1 nM | IC50 (IKK1): 631 nM | IC50 (ITK): > 25100 nM | IC50 (AURB): 63.1 nM

CCCNc1nc(Nc2cnn(C)c2)c2c(=O)[nH]ccc2n1 [NEU-0001187]
IC50 (PI3KA): > 25100 nM | IC50 (SYK): 63.1 nM | IC50 (IKK2): 3980 nM | PFI (ChromlogD assay): 5.43 | IC50 (P38A): > 25100 nM | IC50 (LCK): 200 nM | IC50 (JAK2): 3.98 nM | IC50 (IKK1): 1580 nM | IC50 (ITK): 63.1 nM | IC50 (AURB): 7.94 nM

CCCCc1nc(Nc2cccc(C)c2)c2c(=O)[nH]ccc2n1 [NEU-0001191]
IC50 (PI3KA): > 25100 nM | IC50 (SYK): 2510 nM | IC50 (IKK2): > 25100 nM | PFI (ChromlogD assay): 8.54 | IC50 (P38A): > 25100 nM | IC50 (LCK): > 25100 nM | IC50 (JAK2): 251 nM | IC50 (IKK1): > 25100 nM | IC50 (ITK): > 25100 nM | IC50 (AURB): 158 nM

CN(C)Cc1ccc(-c2[nH]c3ncc(C#N)cc3c2-c2ccccc2)cc1 [NEU-0001206]
IC50 (PI3KA): > 25100 nM | IC50 (SYK): 251 nM | IC50 (IKK2): > 25100 nM | PFI (ChromlogD assay): 7.88 | IC50 (P38A): > 25100 nM | IC50 (LCK): 50.1 nM | IC50 (JAK2): 501 nM | IC50 (IKK1): > 25100 nM | IC50 (ITK): 12.6 nM | IC50 (AURB): 39.8 nM

Cn1cc(-c2cnc3[nH]cc(-c4cccc(C#N)c4)c3c2)cn1 [NEU-0001207]
IC50 (PI3KA): 3980 nM | IC50 (SYK): 3160 nM | IC50 (IKK2): 2000 nM | PFI (ChromlogD assay): 7.84 | IC50 (P38A): > 25100 nM | IC50 (LCK): 2510 nM | IC50 (JAK2): 794 nM | IC50 (IKK1): 158 nM | IC50 (ITK): 1000 nM | IC50 (AURB): 1260 nM

O=C(Nc1ccc(-c2ccnc3[nH]ccc23)s1)C1(Cc2ccccc2)CCCNC1 (stereo not shown) [NEU-0001240]
IC50 (PI3KA): > 25100 nM | IC50 (SYK): 20000 nM | IC50 (IKK2): 501 nM | PFI (ChromlogD assay): 7.26 | IC50 (P38A): > 25100 nM | IC50 (LCK): 1580 nM | IC50 (JAK2): 501 nM | IC50 (IKK1): 1580 nM | IC50 (ITK): 316 nM | IC50 (AURB): 0.501 nM
